Values of other authors, collected in patent publication US6384213B1, “Process for preparing a pure, pharmacopoeial grade amorphous form of cefuroxime axetil” (Ranbaxy Laboratories Limited, priority 1998, dated 2002).

How the values were obtained:
[1] = amorphous form essentially free from crystalline material, purity at least 95%, compared with crystalline form
[2] = amorphous form essentially free from crystalline material, purity at least 95%

chemical stability [2]: adequate chemical stability
SMILES: CO/N=C(\C(=O)N[C@@H]1C(=O)N2C(C(=O)OC(C)OC(C)=O)=C(COC(N)=O)CS[C@H]12)c1ccco1 (some centres unmarked) [cefuroxime axetil in amorphous form, cefuroxime axetil]
bioavailability [1]: higher bioavailability than the crystalline form
